Results: US20220241261A1, “COMBINATIONS OF INHIBITORS OF IRAK4 WITH INHIBITORS OF BTK” (Bayer Pharma Aktiengesellschaft, priority 2015, published 2022)

Assays:
[1] = tested on: secretion of TNF-α in THP-1 cells; assay: TNF-α secretion in THP-1 cells (LPS-triggered, HTRF); assay type: cell-based; conditions: Homo sapiens, LPS stimulation, 17 h, read-out: IC50 with respect to the secretion of TNF-α in THP-1 cells
Experimental: With the aid of this test, it is possible to test substances for their ability to inhibit secretion of TNF-α (tumour necrosis factor alpha) in THP-1 cells (human monocytic acute leukaemia cell line). […] In this test, TNF-α secretion is triggered by incubation with bacterial lipopolysaccharide (LPS).
The cells were incubated at room temperature for 15 min. 2-2.5 of 0.1 μg/ml LPS (Sigma, Escherichia coli 055:B5, Cat. No. L5418) dissolved in cell culture medium (final concentration 0.05 ag/ml) were then dispensed into each well. As a neutral control, cells were treated with 0.05 ag/ml LPS and 1% DMSO and, as inhibitor control, only once with 1% DMSO.
The amount of TNF-α was determined using the TNF-alpha HTRF Detection Kit (Cisbio, Cat No. 62TNFPEB/C). To this end, in each case 2 μl of the detection solution consisting of anti-TNF-α-XL665 conjugate and anti-TNF-α-cryptate conjugate, dissolved in accordance with the manufacturer's instructions in the reconstitution buffer, were added for the HTRF (Homogeneous Time-Resolved Fluorescence) test. After the addition, the mixture was incubated either at room temperature for 3 h or at 4° C. overnight.
The activity of the substances is expressed as the ratio between neutral and inhibitor control in percent. The IC50 values were calculated using a 4-parameter fit.

[2] = tested on: ABC-DLBCL cell lines TMD-8 and HBL-1 and OCI-LY10; assay: Cell proliferation measurement (Cell Titer Glo, combination, isobolograms); assay type: cell-based, human; conditions: combination with ibrutinib or RN486 or AVL-292 or CGI-1746; TMD-8, HBL-1, OCI-LY10 cells; 72 h
Experimental: The antiproliferative activity of the compounds of the general formula (I) as constituents of the inventive combinations was examined in vitro in human ABC-DLBCL cells. […] After 24 h, cells on one plate (0 h plate) were treated with 30 μl/cavity of CTG solution (Promega Cell Titer Glo (catalogue #G755B and G756B)) and incubated at room temperature for 10 min, and luminescence was measured by means of a VICTOR V (Perkin Elmer), in order to determine cell viability on commencement of treatment. The cells on the test plate were treated with the compounds of the general formula (I) as constituents of the inventive combinations and incubated at 37° C. for 72 h. […] As control, the cells were treated with vehicle (DMSO). After 72 h, the cells were treated with 30 μl/cavity of CTG solution (Promega Cell Titer Glo (catalogue #G755B and G756B)) and incubated at room temperature for 10 min, and luminescence was measured by means of a VICTOR V (Perkin Elmer), in order to determine cell viability at the end of treatment. […] The IC50 values were calculated using a 4-parameter fit. The combinatorial effect to test substances was determined on the basis of the above-described IC50 determination. […] This index allows a quantitative determination of substance interactions. A CI<1, =1, and >1 respectively describe synergistic, additive and antagonistic effects. […]

[3] = tested on: human TMD-8 ABC-DLBCL tumours; conditions: TMD-8 xenograft, C.B-17 SCID mice, ibrutinib 10 mg/kg
Experimental: The anti-tumour activity of the compounds of the general formula (I) as constituents of the inventive combinations was examined in murine xenotransplantation models. For this purpose, female C.B-17 SCID mice were implanted subcutaneously with tumour cell lines of human B-cell lymphoma, e.g. TMD-8. At a mean tumour size of 20-30 mm^2, monotherapeutic treatment or treatment in combination with the standard ibrutinib treatment commenced, each of which were administered orally. This was preceded by randomization of the animals. […] The tumour size and the body weight were determined weekly for three weeks. Changes in the body weight were a measure of treatment-related toxicity (>10%=critical, stoppage in treatment until recovery, >20%=toxic, termination). The tumour area was detected by means of an electronic caliper gauge [length (mm)×width (mm)]. The anti-tumour efficacy defined the ratio of the tumour area of treatment versus control [tumour area of the treatment group on day X/tumour area of the control group on day X]. […] Statistical analysis was effected using single-factor ANOVA and comparison with the control group by means of pair-by-pair comparative analysis (Dunnett's test).
TMD-8 tumour cells were implanted subcutaneously on day 0 into female C.B-17 SCID mice. The treatment was started on day 15 at a tumour area of about 26 mm^2. […]

relapsed DLBCL = conditions: phase 2 study; cited from earlier work

CC(C)(O)CCn1cc2cc(NC(=O)c3cccc(C(F)F)n3)c(C(C)(C)O)cc2n1 [Example 13, 6-(Difluoromethyl)-N-[2-(3-hydroxy-3-methylbutyl)-6-(2-hydroxypropan-2-yl)-2H-indazol-5-yl]pyridine-2-carboxamide]
IC50 [1]: 100 nM
antitumour (anti-proliferative) action of the combination compared to single treatments [2]: distinct rise in antitumour action was almost always recorded

Cc1nc(C(=O)Nc2cc3cn(CCC(C)(C)O)nc3cc2C(C)(C)O)ccc1F [Example 19, 5-Fluoro-N-[2-(3-hydroxy-3-methylbutyl)-6-(2-hydroxypropan-2-yl)-2H-indazol-5-yl]-6-methylpyridine-2-carboxamide]
IC50 [1]: 100 nM
antitumour (anti-proliferative) action of the combination compared to single treatments [2]: distinct rise in antitumour action was almost always recorded

C=CC(=O)N1CCC[C@@H](n2nc(-c3ccc(Oc4ccccc4)cc3)c3c(N)ncnc32)C1 [Ibrutinib, 1-{(3R)-3-[4-amino-3-(4-phenoxyphenyl)-1H-pyrazolo[3,4-d]pyrimidin-1-yl]piperidin-1-yl}prop-2-en-1-one]
Max. weight loss ([3]; QD p.o., Example 11 40 mg/kg, change versus initial body weight): −5%
effect on the tumour growth of TMD-8 (in words) ([3]; oral daily, Example Compound 11 40 mg/kg): moderate inhibitory effect
patients responded to treatment (relapsed DLBCL): 40%
